Reference: ChEMBL document CHEMBL5724914, “Linking interpersonal differences in gut microbiota composition and drug biotransformation activity” (2024)

Legend:
[1] = (§1) The drug is tested on Z-025 corresponding to rabbit gut metagenome with ENA study accession number: PRJEB37062 and ENA sample accession number: ERS12561824 for biotransformation under anaerobic condition. The drug concentrations were measured over 9 timepoints collected between 0 and 24 hours of incubation by liquid-chromatography-coupled mass spectrometry (LC–MS); conditions: 2 µM
[2] = as §1, with “Z-022” for “Z-025”, “mouse” for “rabbit”, “ERS12561821” for “ERS12561824”; conditions: 2 µM
[3] = as §1, with “Z-016” for “Z-025”, “mouse” for “rabbit”, “ERS12561815” for “ERS12561824”; conditions: 2 µM
[4] = as §1, with “Z-008” for “Z-025”, “to” for “to rabbit gut”, “ERS12561808” for “ERS12561824”; conditions: 2 µM
[5] = as §1, with “Z-004” for “Z-025”, “to” for “to rabbit gut”, “ERS12561804” for “ERS12561824”; conditions: 2 µM
[6] = as §1, with “Z-003” for “Z-025”, “pig” for “rabbit”, “ERS12561803” for “ERS12561824”; conditions: 2 µM
[7] = as §1, with “WLS-350” for “Z-025”, “human” for “rabbit”, “ERS12561789” for “ERS12561824”; conditions: 2 µM
[8] = as §1, with “WLS-240” for “Z-025”, “human” for “rabbit”, “ERS12561773” for “ERS12561824”; conditions: 2 µM
[9] = as §1, with “WLS-077” for “Z-025”, “human” for “rabbit”, “ERS12561750” for “ERS12561824”; conditions: 2 µM
[10] = as §1, with “WLS-038” for “Z-025”, “human” for “rabbit”, “ERS12561745” for “ERS12561824”; conditions: 2 µM
[11] = human gut metagenome, 24 h, 2 µM
[12] = human gut metagenome, 24 h, 2 µM; remark: listed apart in the source
[13] = human gut metagenome, 24 h, 2 µM; remark: listed apart in the source
[14] = human gut metagenome, 24 h, 2 µM; remark: listed apart in the source
[15] = human gut metagenome, 24 h, 2 µM; remark: listed apart in the source
[16] = human gut metagenome, 24 h, 2 µM; remark: listed apart in the source
[17] = human gut metagenome, 24 h, 2 µM; remark: listed apart in the source
[18] = human gut metagenome, 24 h, 2 µM; remark: listed apart in the source
[19] = human gut metagenome, 24 h, 2 µM; remark: listed apart in the source
[20] = human gut metagenome, 24 h, 2 µM; remark: listed apart in the source
Also: call rule not given here.

Row | Structure (SMILES) | Bacterial Biotransformation [1] | Bacterial Biotransformation [2] | Bacterial Biotransformation [3] | Bacterial Biotransformation [4] | Bacterial Biotransformation [5] | Bacterial Biotransformation [6] | Bacterial Biotransformation [7] | Bacterial Biotransformation [8] | Bacterial Biotransformation [9] | Bacterial Biotransformation [10] | Bacterial Biotransformation [11] | Bacterial Biotransformation [12] | Bacterial Biotransformation [13] | Bacterial Biotransformation [14] | Bacterial Biotransformation [15] | Bacterial Biotransformation [16] | Bacterial Biotransformation [17] | Bacterial Biotransformation [18] | Bacterial Biotransformation [19] | Bacterial Biotransformation [20]
1 | COC(=O)[C@H](c1ccccc1Cl)N1CCc2sccc2C1.O=S(=O)(O)O [CLOPIDOGREL BISULFATE] | Compound metabolized | Compound metabolized | Compound metabolized | Compound metabolized | Compound metabolized | Compound metabolized | Compound metabolized | Compound metabolized | Compound metabolized | Compound metabolized | Compound metabolized | Compound metabolized | Compound metabolized | Compound NOT metabolized | Compound metabolized | Compound metabolized | Compound metabolized | Compound metabolized | Compound metabolized | Compound metabolized
2 | O=P1(N(CCCl)CCCl)NCCCO1 (stereo not given) [CYCLOPHOSPHAMIDE ANHYDROUS] | Compound NOT metabolized | Compound NOT metabolized | Compound NOT metabolized | Compound NOT metabolized | Compound metabolized | Compound NOT metabolized | Compound NOT metabolized | Compound metabolized | Compound NOT metabolized | Compound NOT metabolized | Compound NOT metabolized | Compound NOT metabolized | Compound metabolized | Compound NOT metabolized | Compound metabolized | Compound metabolized | Compound metabolized | Compound metabolized | Compound NOT metabolized | Compound NOT metabolized
3 | Br.COc1ccc2c(c1)[C@]13CCCC[C@@H]1[C@H](C2)N(C)CC3.O [DEXTROMETHORPHAN HYDROBROMIDE] | Compound metabolized | Compound NOT metabolized | Compound NOT metabolized | Compound NOT metabolized | Compound metabolized | Compound metabolized | Compound metabolized | Compound metabolized | Compound metabolized | Compound NOT metabolized | Compound metabolized | Compound NOT metabolized | Compound metabolized | Compound NOT metabolized | Compound NOT metabolized | Compound metabolized | Compound metabolized | Compound metabolized | Compound NOT metabolized | Compound NOT metabolized
4 | CC(=O)Nc1ccc(OC(C)=O)cc1 [DIACETAMATE] | Compound metabolized | Compound metabolized | Compound metabolized | Compound metabolized | Compound metabolized | Compound metabolized | Compound metabolized | Compound metabolized | Compound metabolized | Compound metabolized | Compound metabolized | Compound metabolized | Compound metabolized | Compound metabolized | Compound metabolized | Compound metabolized | Compound metabolized | Compound metabolized | Compound metabolized | Compound metabolized
